EC50 and IC50 data for twelve compounds are collected here from patent publication US20250129070A1, “BIFUNCTIONAL ANDROGEN RECEPTOR COMPOUNDS” (priority 2023, published 2025).

The structures appear in SMILES notation. Some results are limits rather than exact numbers.

Type in all cases: cell-based
One assay has as its system AR / CBP ternary complex. The assay is described as follows: Ternary complex formation assay (sandwich ELISA, AR capture / CBP detection) in VCaP cell lysates. The note with it: 1.5 hours treatment, sandwich ELISA (AR capture, CBP or p300 detection). In short, it runs like this:
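Anti-AR (AR 441)-coated plates capture AR from lysates of VCaP cells grown ≥3 days at 50K/well in 5% charcoal-stripped FBS, dosed with bifunctional for 1.5 h and lysed 30 min at 4 °C. Co-captured CBP/p300 is probed with rabbit mAb and HRP anti-rabbit, then QuantaRed fluorescence (570/585) is read at 0, 5 and 15 min.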

Another assay relates to VCaP cells. Nature of the assay: VCaP growth inhibition assay. Conditions: 30 pM R1881, 9 days, CTG. In short, it runs like this:
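Growth read by CTG luminescence after 9-day exposure to compound (final 100 nM–10 fM, 1:5 steps) plus 30 pM R1881, in phenol red-free DMEM with 5% CSS. Cells pre-incubated 72 h before dosing; IC50 by nonlinear 4-parameter regression.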

A further assay has as its system HEK-293 cells. Nature of the assay: HEK-293 growth inhibition assay. The note with it: 3 days, CTG. The method in brief: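 HEK-293 cells plated 24 hours before compound treatment, then exposed for 3 days at 37°C/5% CO2. Viability by CellTiter-Glo luminescence after 20 minutes at room temperature. IC50 from RLU versus concentration via 4-parameter logistic nonlinear regression.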

In the assay with AR / CBP ternary complex, `COc1cc(OC2C(C)(C)C(NC(=O)c3ccc(N4CCC(CN5CCC(n6nc(N7CCCc8cc(-c9cnn(C)c9)c(C(F)F)cc87)c7c6CCN(C(C)=O)C7)CC5)C(C)C4)cc3)C2(C)C)ccc1C#N` (stereo not drawn) [Compound 263, 4-[4-[[4-[5-acetyl-3-[7-(difluoromethyl)-6-(1-methylpyrazol-4-yl)-3,4-dihydro-2H-quinolin-1-yl]-6,7-dihydro-4H-pyrazolo[4,3-c]pyridin-1-yl]-1-piperidyl]methyl]-3-methyl-1-piperidyl]-N-[3-(4-cyano-3-methoxy-phenoxy)-2,2,4,4-tetramethyl-cyclobutyl]benzamide] had an EC50 of under 1 nM. Also, the results for the IC50 with VCaP cells and with HEK-293 cells were at most 0.1 nM and over 1000 nM, respectively.

As for `CC(=O)N1CCc2c(c(N3CCCc4cc(-c5cnn(C)c5)c(C(F)F)cc43)nn2C2CCN(C[C@@H]3CCN(c4ncc(C(=O)NC5C(C)(C)C(Oc6ccc(C#N)c(Cl)c6)C5(C)C)cn4)C[C@@H]3C)CC2)C1` (stereo partly drawn) [Compound 275, 2-[(3R,4R)-4-[[4-[5-acetyl-3-[7-(difluoromethyl)-6-(1-methylpyrazol-4-yl)-3,4-dihydro-2H-quinolin-1-yl]-6,7-dihydro-4H-pyrazolo[4,3-c]pyridin-1-yl]-1-piperidyl]methyl]-3-methyl-1-piperidyl]-N-[3-(3-chloro-4-cyano-phenoxy)-2,2,4,4-tetramethyl-cyclobutyl]pyrimidine-5-carboxamide], the EC50 in the assay with AR / CBP ternary complex was under 1 nM. Also, the IC50 with VCaP cells is at most 0.1 nM; in the assay on HEK-293 cells, over 1000 nM.

In the assay on AR / CBP ternary complex, `CC(=O)N1CCc2c(c(N3CCCc4cc(-c5cnn(C)c5)c(C(F)F)cc43)nn2C2CN(C(=O)CN3CCN(c4ncc(C(=O)NC5C(C)(C)C(Oc6ccc(C#N)c(Cl)c6)C5(C)C)cn4)CC3)C2)C1` (stereo not drawn) [Compound 65, 2-[4-[2-[3-[5-acetyl-3-[7-(difluoromethyl)-6-(1-methylpyrazol-4-yl)-3,4-dihydro-2H-quinolin-1-yl]-6,7-dihydro-4H-pyrazolo[4,3-c]pyridin-1-yl]azetidin-1-yl]-2-oxo-ethyl]piperazin-1-yl]-N-[3-(3-chloro-4-cyano-phenoxy)-2,2,4,4-tetramethyl-cyclobutyl]pyrimidine-5-carboxamide] yielded an EC50 of under 1 nM. Besides, the IC50 in the assay on VCaP cells is at most 0.1 nM; with HEK-293 cells, over 10000 nM.

On to `CC(=O)N1CCc2c(c(N3CCCc4cc(-c5cnn(C)c5)c(C(F)F)cc43)nn2C2CCN(C(=O)C3CCN(c4ncc(C(=O)NC5C(C)(C)C(Oc6ccc(C#N)c(Cl)c6)C5(C)C)cn4)CC3)CC2)C1` (stereo not drawn) [Compound 22, 2-[4-[4-[5-acetyl-3-[7-(difluoromethyl)-6-(1-methylpyrazol-4-yl)-3,4-dihydro-2H-quinolin-1-yl]-6,7-dihydro-4H-pyrazolo[4,3-c]pyridin-1-yl]piperidine-1-carbonyl]-1-piperidyl]-N-[3-(3-chloro-4-cyano-phenoxy)-2,2,4,4-tetramethyl-cyclobutyl]pyrimidine-5-carboxamide], for which, in the assay on AR / CBP ternary complex, the EC50 is under 1 nM. For the same compound, the values for the IC50 in the assay with VCaP cells and with HEK-293 cells were at most 0.1 nM and over 10000 nM, respectively.

Regarding `CNC(=O)N1CCc2c(c(N3CCCc4cc(-c5cnn(C)c5)c(C(F)F)cc43)nn2C2CCN(C(=O)COCCCOCC3CCN(c4ncc(C(=O)NC5C(C)(C)C(Oc6ccc(C#N)c(Cl)c6)C5(C)C)cn4)CC3)CC2)C1` (stereo not drawn) [Compound 97, 1-[1-[2-[3-[[1-[5-[[3-(3-chloro-4-cyano-phenoxy)-2,2,4,4-tetramethyl-cyclobutyl]carbamoyl]pyrimidin-2-yl]-4-piperidyl]methoxy]propoxy]acetyl]-4-piperidyl]-3-[7-(difluoromethyl)-6-(1-methylpyrazol-4-yl)-3,4-dihydro-2H-quinolin-1-yl]-N-methyl-6,7-dihydro-4H-pyrazolo[4,3-c]pyridine-5-carboxamide], the EC50 in the assay with AR / CBP ternary complex was under 1 nM. The IC50 with VCaP cells is at most 0.1 nM; in the assay with HEK-293 cells, over 10000 nM.

In the assay with AR / CBP ternary complex, `COc1cc(OC2C(C)(C)C(NC(=O)c3ccc(N4CC(C)C(CN5CCC(n6nc(N7CCCc8cc(-c9cnn(C)c9)c(C(F)F)cc87)c7c6CCN(C(C)=O)C7)CC5)C(C)C4)cc3)C2(C)C)ccc1C#N` (stereo not drawn) [Compound 327, 4-[4-[[4-[5-acetyl-3-[7-(difluoromethyl)-6-(1-methylpyrazol-4-yl)-3,4-dihydro-2H-quinolin-1-yl]-6,7-dihydro-4H-pyrazolo[4,3-c]pyridin-1-yl]-1-piperidyl]methyl]-3,5-dimethyl-1-piperidyl]-N-[3-(4-cyano-3-methoxy-phenoxy)-2,2,4,4-tetramethyl-cyclobutyl]benzamide] gave an EC50 of under 1 nM. In addition, the results for the IC50 in the assay with VCaP cells and in the assay on HEK-293 cells were 0.1 to 1 nM and over 1000 nM, respectively.

The compound `CNC(=O)N1CCc2c(c(N3CCCc4cc(-c5cnn(C)c5)c(C(F)F)cc43)nn2C2CCN(CCc3ncc(C(=O)NC4C(C)(C)C(Oc5ccc(C#N)c(Cl)c5)C4(C)C)cn3)CC2)C1` (stereo not drawn) [Compound 90, 1-[1-[2-[5-[[3-(3-chloro-4-cyano-phenoxy)-2,2,4,4-tetramethyl-cyclobutyl]carbamoyl]pyrimidin-2-yl]ethyl]-4-piperidyl]-3-[7-(difluoromethyl)-6-(1-methylpyrazol-4-yl)-3,4-dihydro-2H-quinolin-1-yl]-N-methyl-6,7-dihydro-4H-pyrazolo[4,3-c]pyridine-5-carboxamide] returned an EC50 in the assay on AR / CBP ternary complex of under 1 nM. The IC50 is over 100 nM in the assay with VCaP cells and 2160 nM in the assay with HEK-293 cells.

Compound `CNC(=O)N1CCc2c(c(N3CCCc4cc(-c5cnn(C)c5)c(C(F)F)cc43)nn2C2CCN(C(=O)COCCCN3CCN(c4ncc(C(=O)NC5C(C)(C)C(Oc6ccc(C#N)c(Cl)c6)C5(C)C)cn4)CC3)CC2)C1` (stereo not drawn) [Compound 105, 1-[1-[2-[3-[4-[5-[[3-(3-chloro-4-cyano-phenoxy)-2,2,4,4-tetramethyl-cyclobutyl]carbamoyl]pyrimidin-2-yl]piperazin-1-yl]propoxy]acetyl]-4-piperidyl]-3-[7-(difluoromethyl)-6-(1-methylpyrazol-4-yl)-3,4-dihydro-2H-quinolin-1-yl]-N-methyl-6,7-dihydro-4H-pyrazolo[4,3-c]pyridine-5-carboxamide] displayed an EC50 with AR / CBP ternary complex of under 1 nM. The IC50 in the assay on VCaP cells is 0.1 to 1 nM; in the assay with HEK-293 cells, over 10000 nM.

In the assay on AR / CBP ternary complex, `CNC(=O)N1CCc2c(c(N3CCCc4cc(-c5cnn(C)c5)c(C(F)F)cc43)nn2C2CCN(C(=O)CN3CCN(c4ccc(C(=O)NC5C(C)(C)C(Oc6ccc(C#N)c(Cl)c6)C5(C)C)cn4)CC3)CC2)C1` (stereo not drawn) [Compound 42, 1-[1-[2-[4-[5-[[3-(3-chloro-4-cyano-phenoxy)-2,2,4,4-tetramethyl-cyclobutyl]carbamoyl]-2-pyridyl]piperazin-1-yl]acetyl]-4-piperidyl]-3-[7-(difluoromethyl)-6-(1-methylpyrazol-4-yl)-3,4-dihydro-2H-quinolin-1-yl]-N-methyl-6,7-dihydro-4H-pyrazolo[4,3-c] pyridine-5-carboxamide] returned an EC50 of under 1 nM. In addition, the IC50 was at most 0.1 nM in the assay with VCaP cells and over 10000 nM with HEK-293 cells.

As for `CC(=O)N1CCc2c(c(N3CCCc4cc(-c5cnn(C)c5)c(C(F)F)cc43)nn2C2CCN(S(=O)(=O)C3CCN(c4ncc(C(=O)NC5C(C)(C)C(Oc6ccc(C#N)c(Cl)c6)C5(C)C)cn4)CC3)CC2)C1` (stereo not drawn) [Compound 28, 2-[4-[[4-[5-acetyl-3-[7-(difluoromethyl)-6-(1-methylpyrazol-4-yl)-3,4-dihydro-2H-quinolin-1-yl]-6,7-dihydro-4H-pyrazolo[4,3-c]pyridin-1-yl]-1-piperidyl]sulfonyl]-1-piperidyl]-N-[3-(3-chloro-4-cyano-phenoxy)-2,2,4,4-tetramethyl-cyclobutyl]pyrimidine-5-carboxamide], in the assay with AR / CBP ternary complex, the EC50 was under 1 nM. The figures for the IC50 in the assay with VCaP cells and in the assay with HEK-293 cells were at most 0.1 nM and over 10000 nM, respectively.

Regarding `CC(=O)N1CCc2c(c(N3CCCc4cc(-c5cnn(C)c5)c(C(F)F)cc43)nn2C2CCN(CC3CN(c4ncc(C(=O)NC5C(C)(C)C(Oc6ccc(C#N)c(Cl)c6)C5(C)C)cn4)C3)CC2)C1` (stereo not drawn) [Compound 20, 2-[3-[[4-[5-acetyl-3-[7-(difluoromethyl)-6-(1-methylpyrazol-4-yl)-3,4-dihydro-2H-quinolin-1-yl]-6,7-dihydro-4H-pyrazolo[4,3-c]pyridin-1-yl]-1-piperidyl]methyl]azetidin-1-yl]-N-[3-(3-chloro-4-cyano-phenoxy)-2,2,4,4-tetramethyl-cyclobutyl]pyrimidine-5-carboxamide], the EC50 in the assay with AR / CBP ternary complex was under 1 nM. Also, the IC50 in the assay on VCaP cells was at most 0.1 nM; in the assay with HEK-293 cells, over 10000 nM.

Regarding `CC(=O)N1CCc2c(c(N3CCCc4cc(-c5cnn(C)c5)c(C(F)F)cc43)nn2C2CCN(CC3CCN(c4ncc(C(=O)NC5C(C)(C)C(Oc6ccc(C#N)c(Cl)c6)C5(C)C)cn4)CC3(C)C)CC2)C1` (stereo not drawn) [Compound 356, 2-[4-[[4-[5-acetyl-3-[7-(difluoromethyl)-6-(1-methylpyrazol-4-yl)-3,4-dihydro-2H-quinolin-1-yl]-6,7-dihydro-4H-pyrazolo[4,3-c]pyridin-1-yl]-1-piperidyl]methyl]-3,3-dimethyl-1-piperidyl]-N-[3-(3-chloro-4-cyano-phenoxy)-2,2,4,4-tetramethyl-cyclobutyl]pyrimidine-5-carboxamide], in the assay with AR / CBP ternary complex, the EC50 was under 1 nM. Further, the figures for the IC50 in the assay with VCaP cells and in the assay with HEK-293 cells were at most 0.1 nM and over 1000 nM, respectively.

One may read the EC50 as the concentration giving half of the maximal effect. High values mean lower potency in that assay, low ones higher potency in that assay. By IC50 is commonly meant the midpoint of a concentration-inhibition curve.
